In PMC7613998, “Development of selective inhibitors of phosphatidylinositol 3-kinase C2α” (Nature Chemical Biology, 2022):

Key:
Assay in all cases: biochemical
SRC = SRC (Homo sapiens, UniProt P12931); parameters: SelectScreen Z'-LYTE purified kinase panel, per cent inhibition, mean of two points; conditions: (μM)=Km app
CSNK1G2 (CK1 gamma 2) = CSNK1G2 (CK1 gamma 2) (Homo sapiens, UniProt P78368); parameters: SelectScreen Z'-LYTE purified kinase panel, per cent inhibition, mean of two points; conditions: (μM)=Km app
MAPKAPK2 = MAPKAPK2 (Homo sapiens, UniProt P49137); parameters: SelectScreen Z'-LYTE purified kinase panel, per cent inhibition, mean of two points; conditions: (μM)=Km app
MET (cMet) = MET (cMet) (Homo sapiens, UniProt P08581); parameters: SelectScreen Z'-LYTE purified kinase panel, per cent inhibition, mean of two points; conditions: (μM)=Km app
MAPKAPK5 (PRAK) = target: T1, MAPKAPK5 (PRAK) (Homo sapiens, UniProt Q8IW41); parameters: SelectScreen Z'-LYTE purified kinase panel, per cent inhibition, mean of two points; conditions: (μM)=Km app
T1 sequence (Q8IW41 1-473): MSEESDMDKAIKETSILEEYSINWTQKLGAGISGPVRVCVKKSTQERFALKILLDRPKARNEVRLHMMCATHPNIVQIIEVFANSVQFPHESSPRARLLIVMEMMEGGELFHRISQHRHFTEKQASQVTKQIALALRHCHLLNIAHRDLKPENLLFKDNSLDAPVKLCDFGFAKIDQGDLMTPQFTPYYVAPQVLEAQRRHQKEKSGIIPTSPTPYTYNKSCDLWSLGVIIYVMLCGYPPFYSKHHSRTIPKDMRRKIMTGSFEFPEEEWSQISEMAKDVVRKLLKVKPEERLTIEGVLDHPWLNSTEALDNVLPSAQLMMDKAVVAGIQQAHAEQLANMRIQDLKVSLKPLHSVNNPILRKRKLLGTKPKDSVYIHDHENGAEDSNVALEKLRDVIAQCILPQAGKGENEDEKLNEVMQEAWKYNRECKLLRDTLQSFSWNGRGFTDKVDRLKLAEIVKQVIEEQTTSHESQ

ZAP70 = target: T2, ZAP70 (Homo sapiens, UniProt P43403); parameters: SelectScreen Z'-LYTE purified kinase panel, per cent inhibition, mean of two points; conditions: (μM)=Km app
T2 sequence (P43403 1-619): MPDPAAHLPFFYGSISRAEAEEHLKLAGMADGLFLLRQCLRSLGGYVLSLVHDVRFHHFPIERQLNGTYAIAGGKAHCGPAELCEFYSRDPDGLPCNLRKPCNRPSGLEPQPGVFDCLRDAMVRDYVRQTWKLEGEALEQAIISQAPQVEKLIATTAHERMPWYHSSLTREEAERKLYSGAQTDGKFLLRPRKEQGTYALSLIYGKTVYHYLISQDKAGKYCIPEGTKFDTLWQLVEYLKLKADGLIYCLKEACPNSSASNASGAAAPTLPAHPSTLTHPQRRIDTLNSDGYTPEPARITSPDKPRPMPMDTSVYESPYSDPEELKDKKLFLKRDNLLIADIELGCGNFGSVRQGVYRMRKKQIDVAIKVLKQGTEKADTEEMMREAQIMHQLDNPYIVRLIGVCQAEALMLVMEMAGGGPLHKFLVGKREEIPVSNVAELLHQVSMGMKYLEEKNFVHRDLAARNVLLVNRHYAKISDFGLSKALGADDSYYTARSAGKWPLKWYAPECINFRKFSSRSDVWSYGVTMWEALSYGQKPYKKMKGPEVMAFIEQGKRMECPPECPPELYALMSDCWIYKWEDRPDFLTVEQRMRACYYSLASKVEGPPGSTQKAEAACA

CHEK1 (CHK1) = target: T3, CHEK1 (CHK1) (Homo sapiens, UniProt O14757); parameters: SelectScreen Z'-LYTE purified kinase panel, per cent inhibition, mean of two points; conditions: (μM)=Km app
T3 sequence (O14757 1-476): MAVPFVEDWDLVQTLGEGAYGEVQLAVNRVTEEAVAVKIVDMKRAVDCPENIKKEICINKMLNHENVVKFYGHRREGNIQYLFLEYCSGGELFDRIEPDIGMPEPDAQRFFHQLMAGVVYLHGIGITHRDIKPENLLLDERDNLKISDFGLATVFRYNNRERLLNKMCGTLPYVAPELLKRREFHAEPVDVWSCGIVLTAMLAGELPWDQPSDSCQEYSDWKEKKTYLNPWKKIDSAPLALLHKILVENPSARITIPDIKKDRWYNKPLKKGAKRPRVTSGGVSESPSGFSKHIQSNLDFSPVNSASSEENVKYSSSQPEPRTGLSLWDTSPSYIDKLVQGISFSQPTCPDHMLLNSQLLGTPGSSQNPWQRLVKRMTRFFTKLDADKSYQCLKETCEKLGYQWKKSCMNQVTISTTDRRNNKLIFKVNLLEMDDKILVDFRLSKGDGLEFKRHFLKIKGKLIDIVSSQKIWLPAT

MARK3 = MARK3 (Homo sapiens, UniProt P27448); parameters: SelectScreen Z'-LYTE purified kinase panel, per cent inhibition, mean of two points; conditions: (μM)=Km app
MAP2K2 (MEK2) = MAP2K2 (MEK2) (Homo sapiens, UniProt P36507); parameters: SelectScreen LanthaScreen kinase binding assay, per cent tracer displacement, mean of two points; conditions: tracer displacement
MKNK2 (MNK2) = MKNK2 (MNK2) (Homo sapiens, UniProt Q9HBH9); parameters: SelectScreen LanthaScreen kinase binding assay, per cent tracer displacement, mean of two points; conditions: tracer displacement
KIT D816V = KIT D816V (Homo sapiens, UniProt P10721, D816V); parameters: SelectScreen LanthaScreen kinase binding assay, per cent tracer displacement, mean of two points; conditions: tracer displacement
KIT D816V, sequence (P10721 whole entry D816V): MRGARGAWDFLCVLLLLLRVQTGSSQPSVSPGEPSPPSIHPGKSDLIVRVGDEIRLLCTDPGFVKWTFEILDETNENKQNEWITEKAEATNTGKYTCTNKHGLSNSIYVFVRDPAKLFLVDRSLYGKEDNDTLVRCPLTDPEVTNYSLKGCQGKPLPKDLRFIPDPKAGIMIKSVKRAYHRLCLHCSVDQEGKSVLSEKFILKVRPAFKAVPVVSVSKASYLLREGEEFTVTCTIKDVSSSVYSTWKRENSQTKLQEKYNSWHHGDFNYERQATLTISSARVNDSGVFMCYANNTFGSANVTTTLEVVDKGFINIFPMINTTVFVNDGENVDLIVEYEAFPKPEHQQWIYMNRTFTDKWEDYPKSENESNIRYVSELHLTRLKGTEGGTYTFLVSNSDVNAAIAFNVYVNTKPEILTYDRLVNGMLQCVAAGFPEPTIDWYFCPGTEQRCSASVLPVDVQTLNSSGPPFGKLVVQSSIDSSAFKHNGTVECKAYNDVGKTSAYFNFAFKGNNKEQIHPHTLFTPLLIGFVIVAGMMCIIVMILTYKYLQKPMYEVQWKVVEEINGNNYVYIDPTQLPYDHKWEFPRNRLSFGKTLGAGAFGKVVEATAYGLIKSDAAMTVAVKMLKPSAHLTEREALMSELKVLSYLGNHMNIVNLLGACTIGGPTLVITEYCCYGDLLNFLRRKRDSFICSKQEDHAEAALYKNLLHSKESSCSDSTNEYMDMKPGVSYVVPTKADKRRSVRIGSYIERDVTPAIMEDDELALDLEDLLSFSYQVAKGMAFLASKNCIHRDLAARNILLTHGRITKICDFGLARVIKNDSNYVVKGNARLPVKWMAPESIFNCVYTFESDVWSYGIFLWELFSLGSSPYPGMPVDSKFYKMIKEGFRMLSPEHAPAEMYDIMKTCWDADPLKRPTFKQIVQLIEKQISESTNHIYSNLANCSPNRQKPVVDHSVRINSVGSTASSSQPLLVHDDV

SRC, sequence (P12931 whole entry): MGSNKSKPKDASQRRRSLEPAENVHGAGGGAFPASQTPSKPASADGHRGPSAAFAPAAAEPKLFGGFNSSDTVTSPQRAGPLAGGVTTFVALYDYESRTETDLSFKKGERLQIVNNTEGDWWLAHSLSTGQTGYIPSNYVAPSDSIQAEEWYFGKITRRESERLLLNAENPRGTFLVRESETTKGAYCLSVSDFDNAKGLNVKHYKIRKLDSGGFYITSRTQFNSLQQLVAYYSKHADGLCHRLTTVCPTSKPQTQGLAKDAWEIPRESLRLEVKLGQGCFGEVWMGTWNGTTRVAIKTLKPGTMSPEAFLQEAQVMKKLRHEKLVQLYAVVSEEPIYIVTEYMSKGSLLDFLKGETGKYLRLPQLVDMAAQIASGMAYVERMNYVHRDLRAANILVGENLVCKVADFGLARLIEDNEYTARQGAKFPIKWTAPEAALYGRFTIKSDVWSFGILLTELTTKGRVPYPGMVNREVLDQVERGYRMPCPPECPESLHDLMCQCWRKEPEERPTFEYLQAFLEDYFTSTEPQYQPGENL
MET (cMet), sequence (P08581 whole entry): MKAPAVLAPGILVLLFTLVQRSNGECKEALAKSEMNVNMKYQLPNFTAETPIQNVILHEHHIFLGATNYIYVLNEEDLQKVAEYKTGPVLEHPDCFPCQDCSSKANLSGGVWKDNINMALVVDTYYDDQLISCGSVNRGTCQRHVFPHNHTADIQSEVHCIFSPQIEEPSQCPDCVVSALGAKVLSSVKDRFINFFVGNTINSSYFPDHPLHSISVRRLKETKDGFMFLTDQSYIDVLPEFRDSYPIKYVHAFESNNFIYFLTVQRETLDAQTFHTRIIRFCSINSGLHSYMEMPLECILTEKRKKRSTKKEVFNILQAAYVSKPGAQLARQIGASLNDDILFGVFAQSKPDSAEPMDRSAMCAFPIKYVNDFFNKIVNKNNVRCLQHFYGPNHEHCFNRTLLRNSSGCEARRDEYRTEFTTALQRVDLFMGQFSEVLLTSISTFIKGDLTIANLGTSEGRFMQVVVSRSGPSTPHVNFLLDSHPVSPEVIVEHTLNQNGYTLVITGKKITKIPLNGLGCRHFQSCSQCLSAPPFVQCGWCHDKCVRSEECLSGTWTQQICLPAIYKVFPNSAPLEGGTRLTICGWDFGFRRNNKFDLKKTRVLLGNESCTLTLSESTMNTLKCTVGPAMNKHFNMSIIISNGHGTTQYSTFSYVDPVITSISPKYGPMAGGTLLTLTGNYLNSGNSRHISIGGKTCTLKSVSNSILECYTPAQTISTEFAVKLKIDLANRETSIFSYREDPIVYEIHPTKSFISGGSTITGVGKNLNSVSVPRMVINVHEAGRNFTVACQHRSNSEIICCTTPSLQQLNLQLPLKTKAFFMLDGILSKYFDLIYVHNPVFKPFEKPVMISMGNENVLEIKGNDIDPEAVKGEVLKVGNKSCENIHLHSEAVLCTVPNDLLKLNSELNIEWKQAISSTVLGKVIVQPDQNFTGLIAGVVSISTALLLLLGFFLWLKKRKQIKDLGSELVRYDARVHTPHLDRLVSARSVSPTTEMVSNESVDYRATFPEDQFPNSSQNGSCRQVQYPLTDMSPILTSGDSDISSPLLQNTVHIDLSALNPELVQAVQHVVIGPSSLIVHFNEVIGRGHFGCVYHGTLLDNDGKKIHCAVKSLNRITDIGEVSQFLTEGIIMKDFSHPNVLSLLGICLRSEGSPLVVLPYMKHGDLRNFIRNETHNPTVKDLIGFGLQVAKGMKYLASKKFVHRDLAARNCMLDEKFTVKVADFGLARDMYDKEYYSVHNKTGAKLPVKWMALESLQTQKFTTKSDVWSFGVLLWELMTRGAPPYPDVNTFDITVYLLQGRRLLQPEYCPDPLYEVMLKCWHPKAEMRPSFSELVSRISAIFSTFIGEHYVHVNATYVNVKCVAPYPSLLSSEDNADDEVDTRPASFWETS
MKNK2 (MNK2), sequence (Q9HBH9 whole entry): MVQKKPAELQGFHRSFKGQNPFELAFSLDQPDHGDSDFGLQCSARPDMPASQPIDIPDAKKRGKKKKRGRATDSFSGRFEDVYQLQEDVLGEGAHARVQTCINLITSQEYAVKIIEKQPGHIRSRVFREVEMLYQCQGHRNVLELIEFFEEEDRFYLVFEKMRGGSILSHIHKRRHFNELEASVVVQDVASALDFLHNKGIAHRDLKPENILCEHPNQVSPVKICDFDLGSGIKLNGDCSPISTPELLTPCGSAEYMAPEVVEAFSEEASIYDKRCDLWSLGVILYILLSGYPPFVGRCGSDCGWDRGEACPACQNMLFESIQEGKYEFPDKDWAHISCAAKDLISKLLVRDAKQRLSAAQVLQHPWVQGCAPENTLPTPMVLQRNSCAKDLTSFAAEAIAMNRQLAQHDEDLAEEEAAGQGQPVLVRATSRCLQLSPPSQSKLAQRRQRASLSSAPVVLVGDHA
CSNK1G2 (CK1 gamma 2), sequence (P78368 whole entry): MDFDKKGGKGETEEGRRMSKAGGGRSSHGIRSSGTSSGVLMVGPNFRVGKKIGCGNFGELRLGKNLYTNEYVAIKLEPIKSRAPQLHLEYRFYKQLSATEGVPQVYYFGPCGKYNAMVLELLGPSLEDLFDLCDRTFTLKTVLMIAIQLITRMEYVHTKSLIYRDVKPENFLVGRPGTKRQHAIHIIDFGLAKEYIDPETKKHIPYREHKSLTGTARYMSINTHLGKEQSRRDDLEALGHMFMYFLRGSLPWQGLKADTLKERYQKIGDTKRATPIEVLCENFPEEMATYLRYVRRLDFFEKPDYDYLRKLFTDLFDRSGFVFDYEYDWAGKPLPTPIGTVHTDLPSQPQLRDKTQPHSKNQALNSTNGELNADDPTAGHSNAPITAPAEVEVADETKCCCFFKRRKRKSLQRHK
MAP2K2 (MEK2), sequence (P36507 whole entry): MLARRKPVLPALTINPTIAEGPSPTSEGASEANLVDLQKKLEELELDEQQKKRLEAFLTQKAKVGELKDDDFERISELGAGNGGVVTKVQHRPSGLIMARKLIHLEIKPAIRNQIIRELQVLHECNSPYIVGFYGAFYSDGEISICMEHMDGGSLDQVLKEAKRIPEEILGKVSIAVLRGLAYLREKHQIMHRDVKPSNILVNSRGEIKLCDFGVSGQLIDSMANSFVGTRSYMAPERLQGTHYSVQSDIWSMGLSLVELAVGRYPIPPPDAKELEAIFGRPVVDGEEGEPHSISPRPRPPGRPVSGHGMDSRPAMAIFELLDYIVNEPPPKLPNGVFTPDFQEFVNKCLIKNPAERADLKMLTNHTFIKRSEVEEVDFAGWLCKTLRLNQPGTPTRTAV
MAPKAPK2, sequence (P49137 whole entry): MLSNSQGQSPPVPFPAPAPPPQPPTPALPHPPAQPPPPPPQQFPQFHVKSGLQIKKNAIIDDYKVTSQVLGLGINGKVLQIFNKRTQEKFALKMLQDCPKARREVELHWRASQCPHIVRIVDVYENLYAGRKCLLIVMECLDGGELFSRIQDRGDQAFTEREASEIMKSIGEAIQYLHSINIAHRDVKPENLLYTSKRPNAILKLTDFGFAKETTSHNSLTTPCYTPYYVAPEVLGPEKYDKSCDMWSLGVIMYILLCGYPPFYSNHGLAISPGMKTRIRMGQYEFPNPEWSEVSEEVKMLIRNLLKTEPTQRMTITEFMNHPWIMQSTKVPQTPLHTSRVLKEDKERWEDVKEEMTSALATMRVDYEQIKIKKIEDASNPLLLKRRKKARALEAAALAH

Compound	inhibition at 1 µM (SRC) [%]	inhibition at 3 µM (SRC) [%]	inhibition at 10 µM (SRC) [%]	inhibition at 1 µM (CSNK1G2 (CK1 gamma 2)) [%]	inhibition at 3 µM (CSNK1G2 (CK1 gamma 2)) [%]	inhibition at 10 µM (CSNK1G2 (CK1 gamma 2)) [%]	inhibition at 1 µM (MAPKAPK2) [%]	inhibition at 3 µM (MAPKAPK2) [%]	inhibition at 10 µM (MAPKAPK2) [%]	inhibition at 1 µM (MET (cMet)) [%]	inhibition at 3 µM (MET (cMet)) [%]	inhibition at 10 µM (MET (cMet)) [%]	inhibition at 1 µM (MAPKAPK5 (PRAK)) [%]	inhibition at 3 µM (MAPKAPK5 (PRAK)) [%]	inhibition at 10 µM (MAPKAPK5 (PRAK)) [%]	inhibition at 1 µM (ZAP70) [%]	inhibition at 3 µM (ZAP70) [%]	inhibition at 10 µM (ZAP70) [%]	inhibition at 1 µM (CHEK1 (CHK1)) [%]	inhibition at 3 µM (CHEK1 (CHK1)) [%]	further results
O=C(CSc1nc2nccnc2c(=O)n1CCc1ccccc1)Nc1nccs1 [compound 1, PITCOIN1]	8.59	3.7	9.6	0.334	6.89	8.12	4.27	5.91	1.1	4.52	-1.8	1.23	-1.38	1.26	0.194	13.7	11.6	9.43	-13.5	-11.6	inhibition at 10 µM (CHEK1 (CHK1)): -3.01%; inhibition at 1 µM (MARK3): 2.69%; inhibition at 3 µM (MARK3): 11.3%; inhibition at 10 µM (MARK3): 0.672%; inhibition at 1 µM (MAP2K2 (MEK2)): -3%; inhibition at 3 µM (MAP2K2 (MEK2)): 2.42%; inhibition at 10 µM (MAP2K2 (MEK2)): -1.45%; inhibition at 1 µM (MKNK2 (MNK2)): -2.8%; inhibition at 3 µM (MKNK2 (MNK2)): -3.55%; inhibition at 10 µM (MKNK2 (MNK2)): -10.1%; inhibition at 1 µM (KIT D816V): -3.29%; inhibition at 3 µM (KIT D816V): 2.7%; inhibition at 10 µM (KIT D816V): -1.13%
CS(=O)(=O)Nc1cccc(-c2csc(NC(=O)CSc3nc4nccnc4c(=O)n3CCc3ccccc3)n2)c1 [compound 3, PITCOIN3]	9.83	12.2	7.36	7.85	15.6	13.7	0.509	3.08	6.37	4.73	8.1	-2.17	-3.78	2.14	-2.49	17.4	12.6	14.5	-7.7	-2.83	inhibition at 10 µM (CHEK1 (CHK1)): -11.2%; inhibition at 1 µM (MARK3): 1.74%; inhibition at 3 µM (MARK3): 4.94%; inhibition at 10 µM (MARK3): 6.84%; inhibition at 1 µM (MAP2K2 (MEK2)): 0.637%; inhibition at 3 µM (MAP2K2 (MEK2)): 2.82%; inhibition at 10 µM (MAP2K2 (MEK2)): -3.31%; inhibition at 1 µM (MKNK2 (MNK2)): -4.48%; inhibition at 3 µM (MKNK2 (MNK2)): 1.13%; inhibition at 10 µM (MKNK2 (MNK2)): -10.9%; inhibition at 1 µM (KIT D816V): 6.33%; inhibition at 3 µM (KIT D816V): 6.29%; inhibition at 10 µM (KIT D816V): 5.56%
